# Test results reported in patent publication US4613355A, “Antibiotic having herbicidal activity” (Satoshi Omura, priority 1983, dated 1986).
# Structures can show the parent of a compound that is named as a salt.
# Columns and labels:
# Format in all cases: in vivo
# Eichhornia crassipes = assay: Activity against aquatic plants (Example 12); details: 0.1%, 1500 liter per hectare, 4 weeks after the treatment
# Protocol: An aqueous solution containing 0.1% of Phosalacine (monosodium salt) and 0.1% of octylphenylpolyoxyethanol was applied to Eichhornia crassipes at a certain stage of growth, at a rate of 1500 liter per hectare as a foliage treatment. Damage to the plants was assessed visually 4 weeks after the treatment.
# Oxalis corniculata = assay: Foliage treatment (Example 8); set-up: key: 0 indicates no effect; 5 indicates complete kill; details: Plant No. 35 Oxalis corniculata
# Protocol: (§1) Aqueous solutions of Phosalacine (Na salt) at different concentrations were applied at a rate of 1500 liters per hectare to naturally occurring plants or plants which were cultured on plates as shown in the following Table at certain stages of growth. […]
# Allium fistulosum = assay: Foliage treatment (Example 8); set-up: key: 0 indicates no effect; 5 indicates complete kill; details: Plant No. 27 Allium fistulosum
# Protocol: as §1
# Euphonia supina = assay: Foliage treatment (Example 8); set-up: key: 0 indicates no effect; 5 indicates complete kill; details: Plant No. 36 Euphonia supina
# Protocol: as §1
# [1] = test system: Eleucine indica var. carocana; assay: Foliage treatment (Example 8); set-up: key: 0 indicates no effect; 5 indicates complete kill; details: Plant No. 24 Eleucine indica var. carocana
# Protocol: as §1
# Digitaria adscendens [2] = assay: Foliage treatment of seedlings in pots (Example 7); details: 10 days after foliage treatment, 1000 liter per hectare
# Protocol: Upland soil was put in a pot of 10 cm diameter and the seeds of Digitaria adscendens were sown in the soil at a depth of 1 cm from the surface. When the height of the seedlings was about 10 cm, aqueous solutions of the test compounds as shown in the following Table were uniformly sprayed on the plants at a rate of 1.2 ml per plant, equivalent to 1000 liter per hectare. 10 days after the foliage treatment, damage to plants was visually assessed on a scale of from 0 to 10, where 0 indicates no effect and 10 indicates complete kill.
# Pueraria lobata = assay: Foliage treatment (Example 8); set-up: key: 0 indicates no effect; 5 indicates complete kill; details: Plant No. 16 Pueraria lobata
# Protocol: (§2) Aqueous solutions of Phosalacine (Na salt) at different concentrations were applied at a rate of 1500 liters per hectare to naturally occurring plants or plants which were cultured on plates as shown in the following Table at certain stages of growth. […] One month after the foliage treatment, the inhibition of regrowth of the plants was visually investigated.
# Imperata cyrindrica = assay: Foliage treatment (Example 8); set-up: key: 0 indicates no effect; 5 indicates complete kill; details: Plant No. 15 Imperata cyrindrica
# Protocol: as §2
# Pleioblastus chino = assay: Foliage treatment (Example 8); set-up: key: 0 indicates no effect; 5 indicates complete kill; details: Plant No. 11 Pleioblastus chino
# Protocol: as §2
# Digitaria adscendens [3] = assay: Foliage treatment (Example 8); set-up: key: 0 indicates no effect; 5 indicates complete kill; details: Plant No. 10 Digitaria adscendens
# Protocol: as §2
# Rumex obtusifolius = assay: Foliage treatment (Example 8); set-up: key: 0 indicates no effect; 5 indicates complete kill; details: Plant No. 14 Rumex obtusifolius
# Protocol: as §2
# Cayratia japonica = assay: Foliage treatment (Example 8); set-up: key: 0 indicates no effect; 5 indicates complete kill; details: Plant No. 13 Cayratia japonica
# Protocol: as §2
# Oryzae sativa = assay: Foliage treatment (Example 8); set-up: key: 0 indicates no effect; 5 indicates complete kill; details: Plant No. 25 Oryzae sativa
# Protocol: as §2
# Raphanus sativus = assay: Foliage treatment (Example 8); set-up: key: 0 indicates no effect; 5 indicates complete kill; details: Plant No. 32 Raphanus sativus
# Protocol: as §2
# Helianthus tuberosus = assay: Foliage treatment (Example 8); set-up: key: 0 indicates no effect; 5 indicates complete kill; details: Plant No. 12 Helianthus tuberosus
# Protocol: as §2
# Solanum melongena = assay: Foliage treatment (Example 8); set-up: key: 0 indicates no effect; 5 indicates complete kill; details: Plant No. 31 Solanum melongena
# Protocol: as §2
# Daucus carota = assay: Foliage treatment (Example 8); set-up: key: 0 indicates no effect; 5 indicates complete kill; details: Plant No. 29 Daucus carota
# Protocol: as §2
# Triticum aestivum = assay: Foliage treatment (Example 8); set-up: key: 0 indicates no effect; 5 indicates complete kill; details: Plant No. 26 Triticum aestivum
# Protocol: as §2
smiles,measurement,setting,value
CC(C)C[C@H](NC(=O)[C@H](C)NC(=O)[C@@H](N)CCP(C)(=O)O)C(=O)O [Phosalacine (Na salt)],"Damage to the plants, assessed visually",Eichhornia crassipes,completely killed
same,"damage to the plants, scale 0 to 5","Oxalis corniculata; 0.05%, 7 days",3
same,"damage to the plants, scale 0 to 5","Oxalis corniculata; 0.05%, 14 days",4
same,"damage to the plants, scale 0 to 5","Oxalis corniculata; 0.1%, 7 days",5
same,"damage to the plants, scale 0 to 5","Oxalis corniculata; 0.1%, 14 days",5
same,"damage to the plants, scale 0 to 5","Allium fistulosum; 0.05%, 7 days",3
same,"damage to the plants, scale 0 to 5","Allium fistulosum; 0.05%, 14 days",5
same,"damage to the plants, scale 0 to 5","Allium fistulosum; 0.1%, 7 days",5
same,"damage to the plants, scale 0 to 5","Allium fistulosum; 0.1%, 14 days",5
same,"damage to the plants, scale 0 to 5","Euphonia supina; 0.05%, 7 days",3
same,"damage to the plants, scale 0 to 5","Euphonia supina; 0.05%, 14 days",4
same,"damage to the plants, scale 0 to 5","Euphonia supina; 0.1%, 7 days",5
same,"damage to the plants, scale 0 to 5","Euphonia supina; 0.1%, 14 days",5
same,"damage to the plants, scale 0 to 5","[1]; 0.05%, 7 days",3
same,"damage to the plants, scale 0 to 5","[1]; 0.05%, 14 days",4
same,"damage to the plants, scale 0 to 5","[1]; 0.1%, 7 days",5
same,"damage to the plants, scale 0 to 5","[1]; 0.1%, 14 days",5
same,"damage to plants, scale 0 to 10",Digitaria adscendens [2]; Concentration 0.01 ppm,3 (30)
same,"damage to plants, scale 0 to 10",Digitaria adscendens [2]; Concentration 0.03 ppm,10 (100)
same,"damage to plants, scale 0 to 10",Digitaria adscendens [2]; Concentration 0.1 ppm,10 (100)
same,"damage to the plants, scale 0 to 5","Pueraria lobata; 0.05%, 7 days",3
same,"damage to the plants, scale 0 to 5","Pueraria lobata; 0.05%, 14 days",4
same,"damage to the plants, scale 0 to 5","Pueraria lobata; 0.1%, 7 days",5
same,"damage to the plants, scale 0 to 5","Pueraria lobata; 0.1%, 14 days",5
same,"damage to the plants, scale 0 to 5","Imperata cyrindrica; 0.05%, 7 days",3
same,"damage to the plants, scale 0 to 5","Imperata cyrindrica; 0.05%, 14 days",4
same,"damage to the plants, scale 0 to 5","Imperata cyrindrica; 0.1%, 7 days",5
same,"damage to the plants, scale 0 to 5","Imperata cyrindrica; 0.1%, 14 days",5
same,"damage to the plants, scale 0 to 5","Pleioblastus chino; 0.05%, 7 days",3
same,"damage to the plants, scale 0 to 5","Pleioblastus chino; 0.05%, 14 days",4
same,"damage to the plants, scale 0 to 5","Pleioblastus chino; 0.1%, 7 days",5
same,"damage to the plants, scale 0 to 5","Pleioblastus chino; 0.1%, 14 days",5
same,"damage to the plants, scale 0 to 5","Digitaria adscendens [3]; 0.05%, 7 days",3
same,"damage to the plants, scale 0 to 5","Digitaria adscendens [3]; 0.05%, 14 days",4
same,"damage to the plants, scale 0 to 5","Digitaria adscendens [3]; 0.1%, 7 days",5
same,"damage to the plants, scale 0 to 5","Digitaria adscendens [3]; 0.1%, 14 days",5
same,"damage to the plants, scale 0 to 5","Rumex obtusifolius; 0.05%, 7 days",3
same,"damage to the plants, scale 0 to 5","Rumex obtusifolius; 0.05%, 14 days",4
same,"damage to the plants, scale 0 to 5","Rumex obtusifolius; 0.1%, 7 days",5
same,"damage to the plants, scale 0 to 5","Rumex obtusifolius; 0.1%, 14 days",5
same,"damage to the plants, scale 0 to 5","Cayratia japonica; 0.05%, 7 days",3
same,"damage to the plants, scale 0 to 5","Cayratia japonica; 0.05%, 14 days",4
same,"damage to the plants, scale 0 to 5","Cayratia japonica; 0.1%, 7 days",5
same,"damage to the plants, scale 0 to 5","Cayratia japonica; 0.1%, 14 days",5
same,"damage to the plants, scale 0 to 5","Oryzae sativa; 0.05%, 7 days",3
same,"damage to the plants, scale 0 to 5","Oryzae sativa; 0.05%, 14 days",4
same,"damage to the plants, scale 0 to 5","Oryzae sativa; 0.1%, 7 days",5
same,"damage to the plants, scale 0 to 5","Oryzae sativa; 0.1%, 14 days",5
same,"damage to the plants, scale 0 to 5","Raphanus sativus; 0.05%, 7 days",3
same,"damage to the plants, scale 0 to 5","Raphanus sativus; 0.05%, 14 days",4
same,"damage to the plants, scale 0 to 5","Raphanus sativus; 0.1%, 7 days",5
same,"damage to the plants, scale 0 to 5","Raphanus sativus; 0.1%, 14 days",5
same,"damage to the plants, scale 0 to 5","Helianthus tuberosus; 0.05%, 7 days",3
same,"damage to the plants, scale 0 to 5","Helianthus tuberosus; 0.05%, 14 days",4
same,"damage to the plants, scale 0 to 5","Helianthus tuberosus; 0.1%, 7 days",5
same,"damage to the plants, scale 0 to 5","Helianthus tuberosus; 0.1%, 14 days",5
same,"damage to the plants, scale 0 to 5","Solanum melongena; 0.05%, 7 days",3
same,"damage to the plants, scale 0 to 5","Solanum melongena; 0.05%, 14 days",5
same,"damage to the plants, scale 0 to 5","Solanum melongena; 0.1%, 7 days",5
same,"damage to the plants, scale 0 to 5","Solanum melongena; 0.1%, 14 days",5
same,"damage to the plants, scale 0 to 5","Daucus carota; 0.05%, 7 days",3
same,"damage to the plants, scale 0 to 5","Daucus carota; 0.05%, 14 days",4
same,"damage to the plants, scale 0 to 5","Daucus carota; 0.1%, 7 days",5
same,"damage to the plants, scale 0 to 5","Daucus carota; 0.1%, 14 days",5
same,"damage to the plants, scale 0 to 5","Triticum aestivum; 0.05%, 7 days",3
same,"damage to the plants, scale 0 to 5","Triticum aestivum; 0.05%, 14 days",4
same,"damage to the plants, scale 0 to 5","Triticum aestivum; 0.1%, 7 days",5
same,"damage to the plants, scale 0 to 5","Triticum aestivum; 0.1%, 14 days",5
